Consider two molecules from patent US9889117B2, “Method for treating and/or delaying the degeneration of Purkinje cells” (EVERFRONT BIOTECH INC., priority 2014, dated 2018).

Data set [1] deals with MJD84.2 transgenic mice (SCA3 mice). Put plainly: Local motor test in SCA3 mice. As to conditions: BP 100 or 500 mg/kg/bid, ligustilide 100 mg/kg/bid; for total moving distance vs untreated group and group fed with olive oil: FIG. 5A; for moving times (moving number) vs untreated group and group fed with olive oil: FIG. 5B; for moving time vs untreated group and group fed with olive oil: FIG. 5C. The data set is classed as in vivo. As for the experimental part: (§1) MJD84.2 transgenic mice (i.e., the mice being transfected with ATXN3 gene with human 84 CAG repeat sequence, hereinafter referred to as “SCA3 mice”) were used in this experiment. MJD84.2 transgenic mice were an animal model used for studying spinal cerebellar atrophy.
(§2) The MJD84.2 transgenic mice of two weeks of age were randomly divided into five groups, each group had six mice. The mice were treated with the following conditions for two weeks: (1) untreated group; (2) treated with olive oil (i.e., only treated with the adjuvant); (3) treated with 100 mg/kg/bid (bis in die) of BP; (4) treated with 500 mg/kg/bid of BP; (5) treated with 100 mg/kg/bid of ligustilide. The wild type mice (WT) was used as a control group. After 2 weeks, local motor and rotarod test were conducted.
Local motor test was performed to test the exercise ability of mice. 10-week-old mice were tested on rotarod once every three weeks. Then, the mice were placed in a transparent acrylic box 2 hours and were free to move. A behavioral test was conducted for 1 hour by using VersaMax 420 (AccuscanInstrumentsInc, USA), and the data was analyzed by statistical methods.

For data set [2], the system named is Purkinje cells. In words: Immunohistochemistry staining of cerebellar slices. Conditions: cerebellum slices of SCA3 mice; BP 100 or 500 mg/kg/bid, ligustilide 100 mg/kg/bid; sacrificed at 20 and 24 weeks; FIG. 7. The data set is classed as in vivo. On the procedure: (§3) The MJD84.2 transgenic mice (i.e., the mice with modified ATXN3 gene) of eight weeks of age were randomly divided into five groups, with six mice in each group. The mice were treated with the following conditions: (1) untreated group; (2) treated with olive oil; (3) treated with 100 mg/kg/bid of BP; (4) treated with 500 mg/kg/bid of BP; (5) treated with 100 mg/kg/bid of ligustilide. Then, the mice were sacrificed at the age of 20 weeks and 24 weeks. Cerebellar slices staining and tissue protein extraction were performed (see Example 5). Whole brain tissue of the mice was fixed overnight with 3.7% formalin and embedded in paraffin. The samples were sectioned (4 μm) by using a Quanto kit (Thermo, USA) and mounted on a microscope slide.

Data set [3] has as its system GFP-ATXN3 protein (Ataxin3Q84). In words: In vitro cell test: GFP-ATXN3 fluorescence in transfected cells. The data set is classed as cell-based, human. Conditions: 5 μg/ml, 24 hours; HEK 293T or neural stem cells transfected with pEGFP-C1-Ataxin3Q84; FIG. 1. As for the experimental part:
In this experiment, the effects of BP and ligustilide on the protein expression level of SCA3 protein were analyzed. First, pEGFP-C1-Ataxin3Q84 plasmid (i.e., a plasmid comprising Ataxin gene with abnormal CAG repeat number (84Q)) containing green fluorescent protein or pEGFP-C1-Ataxin3Q28 plasmid (i.e., a plasmid comprising Ataxin gene with normal CAG repeat number (28Q)) (Addgene company, U.S.) was transfected into human embryonic kidney (HEK) cells 293T (Bioresource Collection and Research Center, Taiwan) or neural stem cells (NSC). The cells were then cultured in a DMEM medium (Dulbecco's modified Eagle's medium, Thermo) containing 10% fetal bovine serum (Gibco), and incubated in an incubator with 5% CO2 at 37° C. Then, the cells were treated with 5 μg/ml BP (A10353, purchased from Alfa Aesar, U.S.; with a purity of 95%) or ligustilide (5393-015M1, purchased from Pharmaron, China) for 24 hours. The protein aggregation of GFP-ATXN3 protein in the cells of each group was observed by a fluorescence microscopy. Wild type cells and cells transfected with green fluorescent protein (GFP) were used as the control group.

Data set [4] concerns calbindin. In words: Western blotting of cerebellum proteins, anti-calbindin antibody. Type of data set: in vivo. Conditions: cerebellum tissue of SCA3 mice; BP 100 or 500 mg/kg/bid, ligustilide 100 mg/kg/bid; FIG. 8. As for the experimental part: as §3
The cerebellums of the mice sacrificed in example 4 were separated from the whole brain, and the proteins in the cerebellums were extracted. The purified proteins were analyzed by Western blotting assay using an anti-ubiquitin antibody and an anti-calbindin antibody, respectively, to determine the changes in the protein expression level of ubiquitin and calbindin in the cerebellum tissue of SCA3 mice in each group. β-actin was used as an internal control group.
It has been known that calbindin is a marker of Purkinje cells.
(A western blot detects proteins with antibodies after separation by electrophoresis.)

The subject of data set [5] is MJD84.2 transgenic mice (SCA3 mice). Put plainly: Rotarod test in SCA3 mice. The data set is classed as in vivo. Conditions: BP 100 or 500 mg/kg/bid, ligustilide 100 mg/kg/bid, 4 to 40 rpm within 300 seconds, FIG. 6. As for the experimental part: as §1, §2
Rotarod test was performed to test the balance and grip ability of mice. The mice were given practice two weeks before the first behavioral test. The experiment was conducted using an IITC rotarod (IITC Life Science Inc, USA).
10-week-old mice were tested on a rotarod once every three weeks. The test condition was set as a linear acceleration from 4 to 40 rpm within 300 seconds. The time (sec) that the mice fell from the rotarod (i.e., latency to fall) was recorded. […] After the rotarod test, the body weight of the mice were recorded. […]
(In general: In the rotarod test animals must keep their balance on a rotating rod.)

In data set [6] the test system is zebrafishes injected with ATXN3 MO. In words: Zebrafish behavioral test (tail stimulation). Type of data set: in vivo. As to conditions: FIG. 3. On the procedure: Morpholinos (MO) was produced by modifying the structure of a fragment of DNA, which can block protein translation process of mRNA to inhibit the expression of a target protein. The ATXN3 MO used in this experiment has a sequence of 5′-[…]-3′ (SEQ ID NO. 1), and the standard used in the control group is 5′-[…]-3′ (SEQ ID NO. 2) (hereinafter referred to as “Ct MO”). Before injection, the MO was dissolved in ddH2O, stored at −20° C. for used. Zebrafish eggs were micro-injected within about one hour after birth. After 21 to 48 hours post fertilization (hpf), the zebrafish eggs were micro-injected with ATXN3 MO or ATXN3 MO in combination with 250 mg/kg BP, 125 mg/kg BP or 62.5 mg/kg BP. After 48 hours, the fish tails were stimulated by tips, and the number of stimulation causing movement of the fish tails was measured.

Data set [7] relates to motor neurons of zebrafishes treated with ATXN3 MO. In words: Zebrafish confocal microscopy test of motor neurons. Type of data set: in vivo. Conditions: 250 mg/kg BP with ATXN3 MO, after 48 hours; FIG. 4. As for the experimental part:
Zebrafish eggs were micro-injected with 300 nM/μl ATXN3 MO, 250 mg/kgBP, or ATXN3 MO in combination with 250 mg/kgBP, 125 mg/kg BP or 62.5 mg/kgBP. After 48 hours, the zebrafishes were enclosed in glass slides. The motor neurons in the living body were recorded by a confocal fluorescence microscopy.
The data shown in FIG. 4 was obtained by 100%*(the number of the survived zebrafishes/total number of the zebrafishes).

The subject of data set [8] is zebrafish. Put plainly: Zebrafish safe dose test (survival rate). The data set is classed as in vivo. Conditions: for survival rate of the zebrafishes: after 48 hours, 28.5° C., FIG. 2. On the procedure: In this experiment, the zebrafishes that were used as the animal models in the experimental group were Tg (HuC:GFP), which is characterized by its primary sensory neurons (Rohon-Beard cells) that can produce fluorescence. The zebrafishes used in the control group were wild type zebrafishes. All of the zebrafishes were provided by TZCAS (Taiwan Zebrafish Core Facility at Academia Sinica, Taiwan) and TZCF (Taiwan Zebrafish Core Facility, Taiwan). First, the toxicity of BP to zebrafish was tested by injecting different dose of BP to zebrafishes. The zebrafishes were then kept at 28.5° C. After 48 hours, the survival rate of the zebrafishes was observed.
The survival rate of the zebrafishes treated with 500 mg/kg BP was 50%, and both of the survival rates of the zebrafishes treated with 250 mg/kg and 50 mg/kg BP were greater than 75%.

For data set [9], the system named is ubiquitin. In words: Western blotting of cerebellum proteins, anti-ubiquitin antibody. The data set is classed as in vivo. As to conditions: cerebellum tissue of SCA3 mice treated with BP; FIG. 9. On the procedure: as §3
The cerebellums of the mice sacrificed in example 4 were separated from the whole brain, and the proteins in the cerebellums were extracted. The purified proteins were analyzed by Western blotting assay using an anti-ubiquitin antibody and an anti-calbindin antibody, respectively, to determine the changes in the protein expression level of ubiquitin and calbindin in the cerebellum tissue of SCA3 mice in each group. β-actin was used as an internal control group. […]

On to `CCC/C=C1\OC(=O)C2=C1CCC=C2` [ligustilide, 3-butylidene-4,5-dihydrophthalide], for which, in [1], the “total moving distance vs untreated group and group fed with olive oil” value is “higher”; the “moving times (moving number) vs untreated group and group fed with olive oil” value is reported as “higher”; the “moving time vs untreated group and group fed with olive oil” value is “higher”. Further, the “number of the Purkinje cells vs untreated group and group fed with olive oil” value in data set [2] is reported as “significantly higher”. In addition, the “fluorescent signal of Ataxin3Q84 in the cells vs untreated groups” value in data set [3] is listed as “significantly lower”. The “protein expression level of calbindin vs untreated group and group fed with olive oil” value in data set [4] is given as “significantly higher”. Also, in [5], the “balance and grip ability (rotarod, latency to fall) vs untreated group and group fed with olive oil” value is “better”.
Turning to `CCCC=C1OC(=O)c2ccccc21` [BP, n-butylidenephthalide], in data set [1], the “total moving distance vs untreated group and group fed with olive oil” value is “higher”; the “moving times (moving number) vs untreated group and group fed with olive oil” value is “higher”; the “moving time vs untreated group and group fed with olive oil” value is recorded as “higher”. Besides, the “amount of stimulation causing the movement of fish tails” value in data set [6] (ATXN3 MO in combination with 250, 125 or 62.5 mg/kg BP, after 48 hours, vs ATXN3 MO alone) is “restored (i.e., decreased)”. Also, the “restoring of behavioral ability of the diseased zebrafishes, comparison of doses” value in [6] (BP of 250 mg/kg, compared with 125 and 62.5 mg/kg) is “the most obvious effect”. Besides, the “number of the Purkinje cells vs untreated group and group fed with olive oil” value in [2] is reported as “significantly higher”. Also, the “number of motor neurons” value in data set [7] is “can maintain the number of motor neurons”. The “survival rate of the zebrafishes” value in data set [8] (50 mg/kg BP injected) is on record as “greater than 75%”. Besides, in data set [8] (250 mg/kg BP injected), the “survival rate of the zebrafishes” value is “greater than 75%”. In addition, the “survival rate of the zebrafishes” value in [8] (500 mg/kg BP injected) is recorded as 50%. For the same molecule, the “safe dose for zebrafish” value in [8] (from survival rate after 48 hours) is “lower than 250 mg/kg”. For the same molecule, the “fluorescent signal of Ataxin3Q84 in the cells vs untreated groups” value in [3] is recorded as “significantly lower”. For the same molecule, the “content of the ubiquitination proteins vs untreated group and group fed with olive oil” value in [9] is reported as “significantly higher”. Further, in data set [4], the “protein expression level of calbindin vs untreated group and group fed with olive oil” value is “significantly higher”. The “balance and grip ability (rotarod, latency to fall) vs untreated group and group fed with olive oil” value in [5] is “better”.
